Results taken from PubChem BioAssay (NCI).
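Grown in 96-well plates, cells were treated for 48 hours with each compound at five concentrations. Insufficient inhibition: endpoint recorded as highest concentration tested. TGI: total growth inhibition.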

Experiments:
Assay in all cases: growth of human tumour cells (NCI), 48 h
U251 CNS = tested on: U251 CNS
CCRF-CEM leukemia = tested on: CCRF-CEM leukemia
A498 renal = tested on: A498 renal
UACC-62 melanoma = tested on: UACC-62 melanoma
MDA-MB-435 = tested on: MDA-MB-435
BT-549 breast = tested on: BT-549 breast
NCI-H226 lung = tested on: NCI-H226 lung
A549 NSCLC = tested on: A549 NSCLC
OVCAR-4 ovarian = tested on: OVCAR-4 ovarian
SF-268 CNS = tested on: SF-268 CNS
NCI/ADR-RES ovarian = tested on: NCI/ADR-RES ovarian
M14 melanoma = tested on: M14 melanoma
HT29 colon = tested on: HT29 colon
SN12C renal = tested on: SN12C renal
MDA-N = tested on: MDA-N
NCI-H23 lung = tested on: NCI-H23 lung
SW-620 colon = tested on: SW-620 colon
MALME-3M melanoma = tested on: MALME-3M melanoma
SK-MEL-5 melanoma = tested on: SK-MEL-5 melanoma
CAKI-1 renal = tested on: CAKI-1 renal
RXF 393 renal = tested on: RXF 393 renal
SK-MEL-28 melanoma = tested on: SK-MEL-28 melanoma
HOP-62 NSCLC = tested on: HOP-62 NSCLC
PC-3 prostate = tested on: PC-3 prostate
DU-145 prostate = tested on: DU-145 prostate
KM12 colon = tested on: KM12 colon
786-0 renal = tested on: 786-0 renal
UO-31 renal = tested on: UO-31 renal
NCI-H460 lung = tested on: NCI-H460 lung
OVCAR-5 ovarian = tested on: OVCAR-5 ovarian
SNB-19 CNS = tested on: SNB-19 CNS
OVCAR-3 ovarian = tested on: OVCAR-3 ovarian
HCT-116 colon = tested on: HCT-116 colon
HCC-2998 colon = tested on: HCC-2998 colon
OVCAR-8 ovarian = tested on: OVCAR-8 ovarian
SF-295 CNS = tested on: SF-295 CNS
UACC-257 melanoma = tested on: UACC-257 melanoma
MOLT-4 leukemia = tested on: MOLT-4 leukemia
COLO 205 colon = tested on: COLO 205 colon
EKVX NSCLC = tested on: EKVX NSCLC
SR leukemia = tested on: SR leukemia
RPMI-8226 leukemia = tested on: RPMI-8226 leukemia
HOP-92 NSCLC = tested on: HOP-92 NSCLC
IGROV1 ovarian = tested on: IGROV1 ovarian
HL-60(TB) leukemia = tested on: HL-60(TB) leukemia
K-562 leukemia = tested on: K-562 leukemia
HS 578T breast = tested on: HS 578T breast
LOX IMVI melanoma = tested on: LOX IMVI melanoma
NCI-H522 lung = tested on: NCI-H522 lung
ACHN renal = tested on: ACHN renal
HCT-15 colon = tested on: HCT-15 colon
MCF7 breast = tested on: MCF7 breast
SF-539 CNS = tested on: SF-539 CNS
SK-MEL-2 melanoma = tested on: SK-MEL-2 melanoma
TK-10 renal = tested on: TK-10 renal
MDA-MB-231 breast = tested on: MDA-MB-231 breast
SNB-75 CNS = tested on: SNB-75 CNS
SK-OV-3 ovarian = tested on: SK-OV-3 ovarian
T-47D breast = tested on: T-47D breast

COc1ccc(-c2c(C(=O)Nc3ccccc3)c(-c3ccccc3)n(C3OC(CO)C(O)C(O)C3O)c(=S)c2C#N)cc1 (centres undefined)
TGI (U251 CNS): > 100 µM
TGI (CCRF-CEM leukemia): > 100 µM
TGI (A498 renal): > 100 µM
TGI (UACC-62 melanoma): > 100 µM
TGI (MDA-MB-435): > 100 µM
TGI (BT-549 breast): > 100 µM
TGI (NCI-H226 lung): > 100 µM
TGI (A549 NSCLC): > 100 µM
TGI (OVCAR-4 ovarian): > 100 µM
TGI (SF-268 CNS): > 100 µM
TGI (NCI/ADR-RES ovarian): > 100 µM
TGI (M14 melanoma): > 100 µM
TGI (HT29 colon): > 100 µM
TGI (SN12C renal): > 100 µM
TGI (MDA-N): > 100 µM
TGI (NCI-H23 lung): > 100 µM
TGI (SW-620 colon): > 100 µM
TGI (MALME-3M melanoma): > 100 µM
TGI (SK-MEL-5 melanoma): > 100 µM
TGI (CAKI-1 renal): > 100 µM
TGI (RXF 393 renal): > 100 µM
TGI (SK-MEL-28 melanoma): > 100 µM
TGI (HOP-62 NSCLC): > 100 µM
TGI (PC-3 prostate): > 100 µM
TGI (DU-145 prostate): > 100 µM
TGI (KM12 colon): > 100 µM
TGI (786-0 renal): > 100 µM
TGI (UO-31 renal): > 100 µM
TGI (NCI-H460 lung): > 100 µM
TGI (OVCAR-5 ovarian): > 100 µM
TGI (SNB-19 CNS): > 100 µM
TGI (OVCAR-3 ovarian): > 100 µM
TGI (HCT-116 colon): > 100 µM
TGI (HCC-2998 colon): > 100 µM
TGI (OVCAR-8 ovarian): > 100 µM
TGI (SF-295 CNS): > 100 µM
TGI (UACC-257 melanoma): > 100 µM
TGI (MOLT-4 leukemia): > 100 µM
TGI (COLO 205 colon): > 100 µM
TGI (EKVX NSCLC): > 100 µM
TGI (SR leukemia): > 100 µM
TGI (RPMI-8226 leukemia): > 100 µM
TGI (HOP-92 NSCLC): > 100 µM
TGI (IGROV1 ovarian): > 100 µM
TGI (HL-60(TB) leukemia): > 100 µM
TGI (K-562 leukemia): > 100 µM
TGI (HS 578T breast): > 100 µM
TGI (LOX IMVI melanoma): > 100 µM
TGI (NCI-H522 lung): > 100 µM
TGI (ACHN renal): > 100 µM
TGI (HCT-15 colon): > 100 µM
TGI (MCF7 breast): > 100 µM

COc1cccc2c(=O)c3c(O)c4cc(N(C)C)ccc4c(OC(C)=O)c3oc12
TGI (U251 CNS): 30.2 µM
TGI (CCRF-CEM leukemia): 13.8 µM
TGI (SF-539 CNS): 40.4 µM
TGI (A498 renal): 60.8 µM
TGI (UACC-62 melanoma): 28 µM
TGI (MDA-MB-435): 31.4 µM
TGI (BT-549 breast): 21.9 µM
TGI (NCI-H226 lung): 75.3 µM
TGI (A549 NSCLC): > 100 µM
TGI (OVCAR-4 ovarian): 32 µM
TGI (SF-268 CNS): 68.4 µM
TGI (SK-MEL-2 melanoma): 46.9 µM
TGI (NCI/ADR-RES ovarian): 60.5 µM
TGI (M14 melanoma): 29.9 µM
TGI (HT29 colon): 27.1 µM
TGI (SN12C renal): 25.5 µM
TGI (MDA-N): 27.8 µM
TGI (NCI-H23 lung): 38.4 µM
TGI (TK-10 renal): 29.3 µM
TGI (SW-620 colon): 22.4 µM
TGI (MALME-3M melanoma): 8.96 µM
TGI (SK-MEL-5 melanoma): 25.1 µM
TGI (CAKI-1 renal): 16.9 µM
TGI (RXF 393 renal): 18.6 µM
TGI (MDA-MB-231 breast): 25 µM
TGI (SK-MEL-28 melanoma): 22.3 µM
TGI (HOP-62 NSCLC): 41.5 µM
TGI (PC-3 prostate): 56.7 µM
TGI (DU-145 prostate): 37.5 µM
TGI (KM12 colon): 34.8 µM
TGI (786-0 renal): 24 µM
TGI (UO-31 renal): 36.4 µM
TGI (NCI-H460 lung): 50.2 µM
TGI (OVCAR-5 ovarian): > 100 µM
TGI (SNB-19 CNS): 91.6 µM
TGI (OVCAR-3 ovarian): 13.6 µM
TGI (HCT-116 colon): 26.8 µM
TGI (HCC-2998 colon): 32.5 µM
TGI (OVCAR-8 ovarian): 37.4 µM
TGI (SNB-75 CNS): 51.4 µM
TGI (SF-295 CNS): > 100 µM
TGI (SK-OV-3 ovarian): > 100 µM
TGI (UACC-257 melanoma): 32.2 µM
TGI (MOLT-4 leukemia): 40.5 µM
TGI (COLO 205 colon): 17.8 µM
TGI (EKVX NSCLC): 25.8 µM
TGI (RPMI-8226 leukemia): 52.6 µM
TGI (HOP-92 NSCLC): 39.3 µM
TGI (HL-60(TB) leukemia): 14.2 µM
TGI (K-562 leukemia): 97.4 µM
TGI (HS 578T breast): 69.5 µM
TGI (LOX IMVI melanoma): 24.3 µM
TGI (ACHN renal): 32.8 µM
TGI (HCT-15 colon): 25.3 µM
TGI (MCF7 breast): 61.7 µM

Cc1c(O)c(OC2OC(CO)C(O)C(O)C2O)cc2c1CC[C@@H]1C2(C)C(=O)C[C@]2(C)[C@@H]([C@@](C)(O)C(O)CCC(C)(C)O)[C@H](O)C[C@@]12C (some centres undefined)
TGI (U251 CNS): > 100 µM
TGI (CCRF-CEM leukemia): > 100 µM
TGI (SF-539 CNS): > 100 µM
TGI (A498 renal): > 100 µM
TGI (UACC-62 melanoma): > 100 µM
TGI (MDA-MB-435): > 100 µM
TGI (BT-549 breast): > 100 µM
TGI (NCI-H226 lung): > 100 µM
TGI (A549 NSCLC): > 100 µM
TGI (OVCAR-4 ovarian): > 100 µM
TGI (SF-268 CNS): > 100 µM
TGI (SK-MEL-2 melanoma): > 100 µM
TGI (NCI/ADR-RES ovarian): > 100 µM
TGI (M14 melanoma): > 100 µM
TGI (HT29 colon): > 100 µM
TGI (SN12C renal): > 100 µM
TGI (MDA-N): > 100 µM
TGI (NCI-H23 lung): > 100 µM
TGI (TK-10 renal): > 100 µM
TGI (SW-620 colon): > 100 µM
TGI (MALME-3M melanoma): > 100 µM
TGI (SK-MEL-5 melanoma): > 100 µM
TGI (CAKI-1 renal): > 100 µM
TGI (RXF 393 renal): > 100 µM
TGI (MDA-MB-231 breast): > 100 µM
TGI (SK-MEL-28 melanoma): > 100 µM
TGI (HOP-62 NSCLC): > 100 µM
TGI (PC-3 prostate): > 100 µM
TGI (DU-145 prostate): > 100 µM
TGI (KM12 colon): > 100 µM
TGI (786-0 renal): > 100 µM
TGI (UO-31 renal): > 100 µM
TGI (NCI-H460 lung): > 100 µM
TGI (OVCAR-5 ovarian): > 100 µM
TGI (SNB-19 CNS): > 100 µM
TGI (OVCAR-3 ovarian): > 100 µM
TGI (HCT-116 colon): > 100 µM
TGI (HCC-2998 colon): > 100 µM
TGI (OVCAR-8 ovarian): > 100 µM
TGI (SNB-75 CNS): > 100 µM
TGI (SF-295 CNS): > 100 µM
TGI (SK-OV-3 ovarian): > 100 µM
TGI (UACC-257 melanoma): > 100 µM
TGI (MOLT-4 leukemia): > 100 µM
TGI (COLO 205 colon): > 100 µM
TGI (EKVX NSCLC): > 100 µM
TGI (SR leukemia): > 100 µM
TGI (HOP-92 NSCLC): > 100 µM
TGI (IGROV1 ovarian): > 100 µM
TGI (HL-60(TB) leukemia): > 100 µM
TGI (K-562 leukemia): > 100 µM
TGI (LOX IMVI melanoma): > 100 µM
TGI (T-47D breast): > 100 µM
TGI (NCI-H522 lung): > 100 µM
TGI (ACHN renal): > 100 µM
TGI (HCT-15 colon): > 100 µM
TGI (MCF7 breast): > 100 µM
